Patent publication US11725012B2, “Imidazo[1,5-a]pyrazine derivatives as PI3K δ inhibitors” (priority 2016, dated 2023)
Where two headings read alike, the source gives them in different places.

Tests used:
[1] = target: recombinant PI3K (p110δ/p85α) (Homo sapiens, UniProt O00329); test: PI3Kδ ADP-Glo kinase assay; assay type: biochemical
Outline: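 ADP-Glo luminescence with recombinant p110δ/p85α and lipid kinase substrate. Compound serial dilutions preincubated 0.5 hr, ATP added, reaction 1 hr at room temperature, then ATP depletion and detection steps. IC50 from a four-parameter logistic fit of residual activity.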

[2] = target: recombinant PI3K (p110α/p85α) (Homo sapiens, UniProt P42336); test: PI3Kα ADP-Glo kinase assay; assay type: biochemical
recombinant PI3K (p110α/p85α), sequence (P42336 whole entry): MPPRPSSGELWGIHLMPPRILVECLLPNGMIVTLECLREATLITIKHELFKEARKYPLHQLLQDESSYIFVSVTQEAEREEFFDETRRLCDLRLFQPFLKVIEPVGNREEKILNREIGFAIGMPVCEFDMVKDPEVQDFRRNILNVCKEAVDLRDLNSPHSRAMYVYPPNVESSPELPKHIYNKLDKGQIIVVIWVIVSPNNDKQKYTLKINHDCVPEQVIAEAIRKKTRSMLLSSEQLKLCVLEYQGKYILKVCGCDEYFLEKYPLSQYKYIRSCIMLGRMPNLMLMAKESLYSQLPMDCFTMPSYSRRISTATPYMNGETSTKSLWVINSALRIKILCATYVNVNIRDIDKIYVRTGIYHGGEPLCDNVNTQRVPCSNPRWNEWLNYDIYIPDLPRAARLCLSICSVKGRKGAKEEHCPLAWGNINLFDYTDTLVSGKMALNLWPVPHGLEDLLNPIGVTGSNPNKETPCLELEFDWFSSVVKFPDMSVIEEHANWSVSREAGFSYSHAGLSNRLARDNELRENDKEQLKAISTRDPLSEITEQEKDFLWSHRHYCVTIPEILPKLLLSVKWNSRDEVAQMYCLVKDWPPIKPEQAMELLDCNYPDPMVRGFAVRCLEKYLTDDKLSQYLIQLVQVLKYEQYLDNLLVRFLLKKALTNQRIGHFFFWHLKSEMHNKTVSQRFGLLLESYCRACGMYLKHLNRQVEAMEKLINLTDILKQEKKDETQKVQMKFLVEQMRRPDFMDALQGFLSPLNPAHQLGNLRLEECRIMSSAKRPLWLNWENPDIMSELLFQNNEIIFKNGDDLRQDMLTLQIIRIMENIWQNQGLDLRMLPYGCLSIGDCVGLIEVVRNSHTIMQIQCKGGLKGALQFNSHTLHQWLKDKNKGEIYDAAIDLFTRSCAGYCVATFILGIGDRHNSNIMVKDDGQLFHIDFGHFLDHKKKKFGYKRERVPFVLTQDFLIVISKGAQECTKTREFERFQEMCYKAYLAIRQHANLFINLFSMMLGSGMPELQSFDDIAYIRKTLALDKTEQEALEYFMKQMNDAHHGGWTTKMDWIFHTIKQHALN
recombinant PI3K (p110α/p85α), sequence (P27986 whole entry partner): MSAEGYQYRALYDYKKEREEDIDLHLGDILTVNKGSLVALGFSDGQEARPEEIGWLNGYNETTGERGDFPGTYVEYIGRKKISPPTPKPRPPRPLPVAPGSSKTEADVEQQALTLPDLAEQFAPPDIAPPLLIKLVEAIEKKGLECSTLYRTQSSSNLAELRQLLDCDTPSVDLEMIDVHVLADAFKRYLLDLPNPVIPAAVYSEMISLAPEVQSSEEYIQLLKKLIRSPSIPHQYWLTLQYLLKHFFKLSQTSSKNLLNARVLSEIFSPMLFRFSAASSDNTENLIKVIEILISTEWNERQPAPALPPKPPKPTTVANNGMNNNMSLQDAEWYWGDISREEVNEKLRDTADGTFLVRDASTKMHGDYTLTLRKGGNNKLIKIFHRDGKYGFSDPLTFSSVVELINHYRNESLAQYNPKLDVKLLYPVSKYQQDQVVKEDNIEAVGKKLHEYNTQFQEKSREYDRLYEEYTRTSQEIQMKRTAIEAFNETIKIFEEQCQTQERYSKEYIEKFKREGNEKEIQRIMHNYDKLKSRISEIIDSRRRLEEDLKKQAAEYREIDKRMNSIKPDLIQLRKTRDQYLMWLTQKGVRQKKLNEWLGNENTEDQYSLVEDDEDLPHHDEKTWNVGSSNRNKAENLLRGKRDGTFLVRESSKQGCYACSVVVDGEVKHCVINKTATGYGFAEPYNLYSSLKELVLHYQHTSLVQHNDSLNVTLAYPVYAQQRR

PI3K (p110β/p85α) = PI3K (p110β/p85α) (Homo sapiens, UniProt P42338); test: PI3Kβ ADP-Glo kinase assay; assay type: biochemical
PI3K (p110β/p85α), sequence (P42338 whole entry): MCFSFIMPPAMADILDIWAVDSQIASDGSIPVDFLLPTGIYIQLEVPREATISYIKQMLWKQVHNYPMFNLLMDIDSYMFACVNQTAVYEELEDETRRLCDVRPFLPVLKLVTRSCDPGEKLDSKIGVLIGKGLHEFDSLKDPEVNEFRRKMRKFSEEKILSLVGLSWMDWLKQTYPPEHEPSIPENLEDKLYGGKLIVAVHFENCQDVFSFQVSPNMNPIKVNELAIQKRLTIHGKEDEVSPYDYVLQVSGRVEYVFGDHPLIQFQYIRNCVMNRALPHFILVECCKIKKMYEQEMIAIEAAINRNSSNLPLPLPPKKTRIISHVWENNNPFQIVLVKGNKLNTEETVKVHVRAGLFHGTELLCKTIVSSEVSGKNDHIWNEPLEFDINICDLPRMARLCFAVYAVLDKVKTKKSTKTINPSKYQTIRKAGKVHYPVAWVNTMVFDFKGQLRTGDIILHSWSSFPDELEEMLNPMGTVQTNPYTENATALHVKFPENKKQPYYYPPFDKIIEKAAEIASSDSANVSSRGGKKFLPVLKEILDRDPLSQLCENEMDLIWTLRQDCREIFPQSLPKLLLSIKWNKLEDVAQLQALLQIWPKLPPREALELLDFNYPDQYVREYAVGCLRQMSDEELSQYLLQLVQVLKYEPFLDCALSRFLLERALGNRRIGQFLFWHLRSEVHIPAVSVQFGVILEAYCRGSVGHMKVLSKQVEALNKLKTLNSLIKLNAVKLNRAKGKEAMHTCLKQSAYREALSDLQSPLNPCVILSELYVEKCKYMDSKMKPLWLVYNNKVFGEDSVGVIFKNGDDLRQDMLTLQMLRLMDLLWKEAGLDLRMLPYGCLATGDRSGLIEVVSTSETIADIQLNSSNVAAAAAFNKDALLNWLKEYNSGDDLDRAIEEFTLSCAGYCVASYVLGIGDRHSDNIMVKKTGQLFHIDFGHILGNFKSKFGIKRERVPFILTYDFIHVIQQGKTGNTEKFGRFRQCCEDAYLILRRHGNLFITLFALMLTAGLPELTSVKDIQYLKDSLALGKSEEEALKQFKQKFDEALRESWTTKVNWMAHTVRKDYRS
PI3K (p110β/p85α), sequence (P27986 whole entry partner): as the sequence (P27986 whole entry partner) above

PI3K (p110γ) = PI3K (p110γ) (Homo sapiens, UniProt P48736); test: PI3Kγ ADP-Glo kinase assay; assay type: biochemical
PI3K (p110γ), sequence (P48736 whole entry): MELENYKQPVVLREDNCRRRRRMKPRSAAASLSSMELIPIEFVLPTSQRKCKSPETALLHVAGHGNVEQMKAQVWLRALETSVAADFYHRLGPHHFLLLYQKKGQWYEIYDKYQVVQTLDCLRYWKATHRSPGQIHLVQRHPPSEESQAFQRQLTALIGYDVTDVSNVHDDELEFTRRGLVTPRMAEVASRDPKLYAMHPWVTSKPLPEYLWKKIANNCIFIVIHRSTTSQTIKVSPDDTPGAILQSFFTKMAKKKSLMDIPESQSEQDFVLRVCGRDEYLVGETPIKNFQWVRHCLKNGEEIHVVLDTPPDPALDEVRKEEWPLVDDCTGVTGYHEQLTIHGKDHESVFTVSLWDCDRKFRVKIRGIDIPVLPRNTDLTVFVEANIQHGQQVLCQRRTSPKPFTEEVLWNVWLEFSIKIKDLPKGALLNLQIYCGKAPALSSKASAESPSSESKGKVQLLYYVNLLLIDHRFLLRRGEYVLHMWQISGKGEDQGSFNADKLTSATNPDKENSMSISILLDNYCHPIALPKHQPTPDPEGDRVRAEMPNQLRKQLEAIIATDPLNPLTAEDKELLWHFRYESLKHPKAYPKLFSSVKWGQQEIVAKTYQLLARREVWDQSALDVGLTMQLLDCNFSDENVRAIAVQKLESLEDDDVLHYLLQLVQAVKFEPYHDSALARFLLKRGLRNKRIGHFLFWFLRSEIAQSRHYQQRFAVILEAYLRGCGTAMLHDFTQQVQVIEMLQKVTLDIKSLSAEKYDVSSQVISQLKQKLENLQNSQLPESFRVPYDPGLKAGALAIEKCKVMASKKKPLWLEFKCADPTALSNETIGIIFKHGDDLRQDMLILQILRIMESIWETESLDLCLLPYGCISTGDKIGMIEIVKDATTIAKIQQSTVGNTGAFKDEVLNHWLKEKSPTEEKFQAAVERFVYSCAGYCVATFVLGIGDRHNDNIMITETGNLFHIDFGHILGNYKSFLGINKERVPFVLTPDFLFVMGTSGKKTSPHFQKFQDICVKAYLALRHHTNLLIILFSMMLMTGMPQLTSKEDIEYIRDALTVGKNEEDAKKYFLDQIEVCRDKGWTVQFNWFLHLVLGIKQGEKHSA

[3] = Pharmacokinetic properties in Sprague-Dawley rats after IV and PO administration; assay type: in vivo; conditions: male, plasma, rat; for Vd: read-out: VdSS
Protocol: III. Pharmacokinetic Properties of Compounds in Sprague-Dawley Rats after Intravenous (IV) and Oral Administrations (PO)
Dose Formulation Preparation The injection dosing solution was prepared as follows: 1.0 mg of a test compound was weighted and dissolved in 0.32 mL of dimenthyl acetamide (DMA). The solution was then further diluted by 0.36 mL of ethanol and 0.32 mL of propylene glycol. The final concentration of the test compound was 1.0 mg·mL^−1.
The oral dosing solution was prepared as follows: 5.0 mg of a test compound was weighed and dispersed in […] of 0.5% methyl cellulose (MC). The final concentration of the test compound is 1 mg·mL^−1.
The animals were housed in solid bottom polypropylene cages with sterilized bedding and receive sterilized diet and sterilized water. The room was controlled and monitored for humidity (targeted mean range 40% to 70%) and temperature (targeted mean range 18° C. to 26° C.) with 10 to 20 air changes/hour. The light cycle was maintained at 12-h light and 12-h dark, Only animals that appeared to be healthy were selected for this study based on overall health, body weight, or other relevant information.
The male Sprague-Dawley rats were fasted overnight with free access to drinking water prior to treatment. On day 1, the animals were weighed and actual dose volume for each animal was calculated using the formula below: Dose Volume (mL)=[Nominal Dose (mg·kg^−1)/Dose Concentration (mg·mL^−1)]×Animal Body Weight (kg) (1)
Three rats were given a single IV dose of 1 mg·kg^−1 via tail vein injection and other three rats were given a single oral dose of 5 mg·kg^−1. The dosing solutions were freshly prepared prior to dose administration. The actual body weights and actual volume injected were recorded accordingly. Four hours after dosing, the rats were allowed to intake food.
Blood samples ([…]) were collected at different times from the jugular vein catheter into EDTA-K2 coated tubes, Whole blood was processed by centrifugation at 3000 g for 10 min. Plasma samples were collected and kept at −80° C. freezer prior to analysis. The blood sampling time was recorded accordingly.
The dose samples of IV and PO were diluted with MeOH:H2O (4:1, v/v) to achieve the concentration of 2 μg·mL^−1, respectively. Then, 2.5 μL of the diluted samples were added with 47.5 μL blank plasma, and then were handled as the plasma sample procedure. An aliquot of 10 μL of the mixture was injected into the LC-MS/MS system.

[4] = Brain penetration in male C57BL/6 mice after oral administration; assay type: in vivo; conditions: mouse; for Kp: male, C57BL/6, brain and plasma, PO 10 mg·kg^−1, read-out: BBB (Brain/Plasma Cone. Ratio)
Protocol: IV. Brain Penetration of Compounds in Male C57BL/6 Mice after Oral Administration Dose Formulation Preparation
Approximately 4 mg of a test compound was weighed and dispersed in 0.5% methyl cellulose (MC). After that, the whole mixture were vortexed until a solution or suspension was formed. The final concentration of the test compound was 1 mg·mL^−1. The concentration of test compound in dosing formulations was determined within 85% to 115% of nominal values.
The mice were housed in solid bottom polypropylene cages with sterilized bedding. The room was controlled and monitored for humidity (targeted mean range 40% to 70%) and temperature (targeted mean range 20° to 25° C.) with 10 to 20 air changes/hour. The room was on a 12-hour light/dark cycle except when interruptions were necessitated by study activities. The mice were supplied with sterilized diet and water. All animals were examined upon receipt and were acclimated for at least 3 days. Only animals that appeared to be healthy were selected for the study based on overall health, body weight, or other relevant data as appropriate.
All procedures performed on animals were in accordance with established guidelines and reviewed and approved by an independent institutional review board.
The mice were administrated with test compound at 10 mg·kg^−1 via oral gavage, respectively. The dosing formulations were freshly prepared. The actual body weights and actual volume administered were recorded accordingly.
Three mice were sacrificed under carbon dioxide for sample collection at 1, 2 and 4 hours post dose, respectively. Blood samples (˜0.2 mL) were collected via cardiac puncture into anticoagulant tubes (coated with EDTA-Ka). The tubes were gently inverted several times to ensure mixing. Whole blood was processed for plasma by centrifugation at 5,500 rpm for 10 min. The brain was collected immediately after euthanasia. The sample collection time was recorded accordingly. After the removal of excess water, the brain was weighed and homogenized with 5× water (w/v) in an ice bath. […]

recombinant PI3K (p110δ/p85α), sequence (O00329 whole entry): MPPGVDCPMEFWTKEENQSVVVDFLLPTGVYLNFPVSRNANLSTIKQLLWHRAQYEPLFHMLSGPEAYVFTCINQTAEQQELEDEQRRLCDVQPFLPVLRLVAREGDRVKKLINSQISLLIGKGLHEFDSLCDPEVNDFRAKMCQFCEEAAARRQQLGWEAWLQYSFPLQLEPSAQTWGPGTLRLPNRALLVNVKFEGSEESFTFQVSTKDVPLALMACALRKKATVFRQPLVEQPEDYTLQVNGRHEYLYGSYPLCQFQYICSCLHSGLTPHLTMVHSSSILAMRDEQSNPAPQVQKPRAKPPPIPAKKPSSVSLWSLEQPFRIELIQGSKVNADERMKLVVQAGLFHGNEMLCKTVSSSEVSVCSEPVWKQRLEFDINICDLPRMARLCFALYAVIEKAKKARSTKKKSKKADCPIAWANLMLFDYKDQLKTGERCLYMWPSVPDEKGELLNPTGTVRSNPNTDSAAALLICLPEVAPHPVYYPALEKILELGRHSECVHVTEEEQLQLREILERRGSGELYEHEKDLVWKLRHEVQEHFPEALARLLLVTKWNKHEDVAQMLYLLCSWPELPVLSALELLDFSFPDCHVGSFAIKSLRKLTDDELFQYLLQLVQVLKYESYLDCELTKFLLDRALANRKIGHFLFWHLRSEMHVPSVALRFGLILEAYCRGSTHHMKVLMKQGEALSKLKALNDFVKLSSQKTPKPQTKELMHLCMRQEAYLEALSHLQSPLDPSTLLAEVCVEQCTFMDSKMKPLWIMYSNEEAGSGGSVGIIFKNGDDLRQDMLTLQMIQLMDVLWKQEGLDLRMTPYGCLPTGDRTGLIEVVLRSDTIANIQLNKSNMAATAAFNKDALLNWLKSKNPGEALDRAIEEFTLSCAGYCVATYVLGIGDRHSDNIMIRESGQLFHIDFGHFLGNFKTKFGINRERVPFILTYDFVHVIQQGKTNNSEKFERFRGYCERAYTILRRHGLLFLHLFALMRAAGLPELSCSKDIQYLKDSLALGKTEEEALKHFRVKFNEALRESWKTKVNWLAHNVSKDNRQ
recombinant PI3K (p110δ/p85α), sequence (P27986 whole entry partner): as the sequence (P27986 whole entry partner) above

CC(C)Oc1c([C@H](C)c2nc(Cl)c3c(N)nccn23)cc(Cl)c(F)c1-c1ccc(C(F)(F)F)nc1 [Compound 40A]
IC50 ([1]; PI3Kδ Enzyme activity IC50): 0.001 µM | IC50 ([2]; PI3Kα Enzyme activity IC50): 33 µM | IC50 (PI3K (p110β/p85α); PI3Kβ Enzyme activity IC50): 6.8 µM | IC50 (PI3K (p110γ); PI3Kγ Enzyme activity IC50): 3.8 µM | AUC(0-inf) ([3]; 1 mg/kg, IV (1 mpk)): 768 ng·h/mL | clearance ([3]; 1 mg/kg, IV (1 mpk)): 22.2 mL/min/kg | half-life ([3]; 1 mg/kg, IV (1 mpk)): 9 h | Vd ([3]; 1 mg/kg, IV (1 mpk)): 14.8 L/kg | AUC(0-inf) ([3]; 5 mg/kg, PO (5 mpk)): 1720 ng·h/mL | Cmax ([3]; 5 mg/kg, PO (5 mpk)): 179 ng/mL | Tmax ([3]; 5 mg/kg, PO (5 mpk)): 2.7 h | bioavailability ([3]; 5 mg/kg, PO (5 mpk)): 51% | half-life ([3]; 5 mg/kg, PO (5 mpk)): 6.6 h | Kp [4]: 0.29 | Brain/Plasma Conc. Ratio (in words) ([4]; PO): much better Brain/Plasma Conc, Ratio

CC(C)Oc1c(C(C)c2nc(Cl)c3c(N)nccn23)cc(Cl)c(F)c1C1CNC(=O)C1 (single isomer, unassigned) [Compound 48B, 4-(3-(1-(8-amino-1-chloroimidazo[1,5-a]pyrazin-3-yl)ethyl)-5-chloro-6-fluoro-2-isopropoxyphenyl)pyrrolidin-2-one]
IC50 ([1]; PI3Kδ Enzyme activity IC50): 0.00031 µM | IC50 ([2]; PI3Kα Enzyme activity IC50): 1.3 µM | IC50 (PI3K (p110β/p85α); PI3Kβ Enzyme activity IC50): 1.2 µM | IC50 (PI3K (p110γ); PI3Kγ Enzyme activity IC50): 0.63 µM | AUC(0-inf) ([3]; 1 mg/kg, IV (1 mpk)): 425 ng·h/mL | clearance ([3]; 1 mg/kg, IV (1 mpk)): 39.2 mL/min/kg | half-life ([3]; 1 mg/kg, IV (1 mpk)): 1.4 h | Vd ([3]; 1 mg/kg, IV (1 mpk)): 4.3 L/kg | AUC(0-inf) ([3]; 5 mg/kg, PO (5 mpk)): 1000 ng·h/mL | Cmax ([3]; 5 mg/kg, PO (5 mpk)): 254 ng/mL | Tmax ([3]; 5 mg/kg, PO (5 mpk)): 0.8 h | bioavailability ([3]; 5 mg/kg, PO (5 mpk)): 47% | half-life ([3]; 5 mg/kg, PO (5 mpk)): 2.1 h

CC(C)Oc1c([C@H](C)c2nc(Cl)c3c(N)nccn23)cc(Cl)c(F)c1-c1ccc(C(=O)N(C)C)nc1 [Compound 16A]
IC50 ([1]; PI3Kδ Enzyme activity IC50): 0.00071 µM | IC50 ([2]; PI3Kα Enzyme activity IC50): 0.79 µM | IC50 (PI3K (p110β/p85α); PI3Kβ Enzyme activity IC50): 0.87 µM | IC50 (PI3K (p110γ); PI3Kγ Enzyme activity IC50): 0.44 µM | AUC(0-inf) ([3]; 1 mg/kg, IV (1 mpk)): 1060 ng·h/mL | clearance ([3]; 1 mg/kg, IV (1 mpk)): 16 mL/min/kg | half-life ([3]; 1 mg/kg, IV (1 mpk)): 1.3 h | Vd ([3]; 1 mg/kg, IV (1 mpk)): 1.8 L/kg | AUC(0-inf) ([3]; 5 mg/kg, PO (5 mpk)): 2190 ng·h/mL | Cmax ([3]; 5 mg/kg, PO (5 mpk)): 496 ng/mL | Tmax ([3]; 5 mg/kg, PO (5 mpk)): 1 h | bioavailability ([3]; 5 mg/kg, PO (5 mpk)): 41.1% | half-life ([3]; 5 mg/kg, PO (5 mpk)): 1.9 h | Kp [4]: 0.05

CCOc1c(C(C)c2nc(Br)c3c(N)nccn23)cc(Cl)c(C)c1-c1ccc(OCCOC)nc1 (stereo not shown) [Compound 30, 1-bromo-3-(1-(5-chloro-2-ethoxy-3-(6-(2-methoxyethoxy)pyridin-3-yl)-4-methylphenyl)ethyl)imidazo[1,5-a]pyrazin-8-amine]
IC50 ([1]; read-out: PI3Kδ Enzyme activity IC50): 0.0023 µM | IC50 ([2]; read-out: PI3Kα Enzyme activity IC50): 1.8 µM | IC50 (PI3K (p110β/p85α); read-out: PI3Kβ Enzyme activity IC50): 0.53 µM | IC50 (PI3K (p110γ); read-out: PI3Kγ Enzyme activity IC50): 0.45 µM
